Measurements reported in patent publication US9120728B2, “Modulators of cortical dopaminergic- and NMDA-receptor-mediated glutamatergic neurotransmission” (INTEGRATIVE RESEARCH LABORATORIES SWEDEN AB, priority 2011, dated 2015).
Structures can show the parent of a compound that is named as a salt.

Assays:
[1] = tested on: DOPAC (3,4-dihydroxyphenylacetic acid) in the rat striatum; assay: Increase of DOPAC (3,4-dihydroxyphenylacetic acid) in the rat striatum after systemic administration; assay type: in vivo; settings: sc, estimated ED50 on increase of DOPAC in rat striatum, dose range 0-100 μmol/kg s.c., curve fitting
Excerpt: The increased turnover of dopamine in the terminal areas of the ascending dopaminergic projections of the mammalian brain can be illustrated by measuring of changes in biochemical indices in the brain with the characteristic features of dopamine antagonists, e.g. producing increases in concentrations of dopamine metabolites such as 3,4-dihydroxyphenyl-acetic acid (DOPAC) in the striatum.
After the behavioural activity sessions, the rats are decapitated and their brains rapidly taken out and put on an ice-cold petri-dish. The limbic forebrain, the striatum, the frontal cortex and the remaining hemispheral parts of each rat are dissected and frozen. Each brain part is subsequently analyzed with respect to its content of monoamines and their metabolites.
The monoamine transmitter substances (NA (noradrenaline), DA (dopamine), 5-HT (serotonin)) as well as their amine (NM (normethanephrine), 3-MT (3-methoxytyramine)) and acid (DOPAC (3,4-dihydroxyphenylacetic acid), 5-HIAA (5-hydroxyindoleacetic acid), HVA (homovanillic acid)) metabolites are quantified in brain tissue homogenates by HPLC separations and electrochemical detection
The analytical method is based on two chromatographic separations dedicated for amines or acids. Two chromatographic systems share a common auto injector with a 10-port valve and two sample loops for simultaneous injection on the two systems. Both systems are equipped with a reverse phase column (Luna C18(2), dp 3 μm, 50×2 mm i.d., Phenomenex) and electrochemical detection is accomplished at two potentials on glassy carbon electrodes (MF-1000, Bioanalytical Systems, Inc.). The column effluent is passed via a T-connection to the detection cell or to a waste outlet. This is accomplished by two solenoid valves, which block either the waste or detector outlet. By preventing the chromatographic front from reaching the detector, better detection conditions are achieved. The aqueous mobile phase (0.4 ml/min) for the acid system contains citric acid 14 mM, sodium citrate 10 mM, MeOH 15% (v/v) and EDTA 0.1 mM. Detection potentials relative to Ag/AgCl reference are 0.45 and 0.60V. […] Detection potentials relative to Ag/AgCl reference are 0.45 and 0.65V.
ED50 value for the increase of DOPAC in striatum is calculated by curve fitting. The evaluation is based on 40 animals over the dose range 0, 3.7, 11, 33 and 100 μmol/kg s.c. in two combined experiments. The DOPAC levels are normalised to control and fitted by least square minimization to the function “End-(End-Control)/(1+(dose/ED50)^slope)”. The four parameters (Control, End, ED50 and Slope) are fitted with the restrictions: ED50>0, 0.5<Slope<3, 350<End<400% of control. To estimate confidence levels for the parameters, the fit is repeated 100 times with a random evenly distributed squared weight (0 to 1) for every measurement value. Presented ED50-ranges cover 95% of these values.

drug-naive rats = assay: Effects on spontaneous locomotion (locomotor activity in drug-naive rats); assay type: in vivo, rat; settings: recorded for 60 minutes immediately after drug administration
Description: Prior art dopamine receptor antagonists are known to induce profound decrease in locomotor activity (catalepsy).
Behavioural activity is measured using eight Digiscan activity monitors (RXYZM (16) TAO, Omnitech Electronics, Columbus, Ohio, USA), connected to an Omnitech Digiscan analyzer and an Apple Macintosh computer equipped with a digital interface board (NB DIO-24, National Instruments, USA). Each activity monitor consists of a quadratic metal frame (W×L=40 cm×40 cm) equipped with photobeam sensors. During measurements of behavioural activity, a rat is put in a transparent acrylic cage (WxLxH, 40×40×30 cm) which in turn is placed in the activity monitor. Each activity monitor is equipped with three rows of infrared photobeam sensors, each row consisting of 16 sensors. Two rows are placed along the front and the side of the floor of the cage, at a 90° angle, and the third row is placed 10 cm above the floor to measure vertical activity. Photobeam sensors are spaced 2.5 cm apart. Each activity monitor is fitted in an identical sound and light attenuating box containing a weak house light and a fan.
The computer software is written using object oriented programming (LabVIEW®, National instruments, Austin, Tex., USA).
Behavioural data from each activity monitor, representing the position (horizontal center of gravity and vertical activity) of the animal at each time, are recorded at a sampling frequency of 25 Hz and collected using a custom written LABView™ application. The data from each recording session are stored and analyzed with respect to distance traveled. Each behavioural recording session lasts 60 min, starting approximately 4 min after the injection of test compound. Similar behavioural recording procedures are applied for drug-naïve and drug pre-treated rats. Rats pre-treated with d-amphetamine are given a dose of 1.5 mg/kg i.p. 10 min before the recording session in the activity monitor. Rats pre-treated with MK-801 are given a dose of 0.7 mg/kg i.p. 90 min before the recording session in the activity monitor. The results are presented as counts/60 minutes, or counts/30 minutes, in arbitrary length units. Statistical comparisons are carried out using Student's t-test against the control group. In MK-801 or amphetamine pre-treated animals, statistical comparisons are made against the MK801 or d-amphetamine controls, respectively.

[2] = tested on: d-amphetamine pre-treated rats; assay: Reduction of amphetamine-induced hyper-locomotion; assay type: in vivo; settings: Rattus norvegicus; rats pre-treated with d-amphetamine 1.5 mg/kg i.p.; test compound 0-100 μmol/kg s.c.; distance during last 45 minutes of one hour
Excerpt: The increase in activity after treatment with d-amphetamine is a standard model of hyperdopaminergia. In this model, dopaminergic neurotransmission is increased by systemic administration of d-amphetamine at a dose that is sufficiently high to produce a large increase in locomotor activity. The ability of a compound to antagonize this hyperactivity reflects anti-dopaminergic properties. Furthermore, antagonism of d-amphetamine induced hyperactivity is widely used as a standard assay of antipsychotic activity (see Psychopharmacology 4th Generation of progress Chapter 68, p 793-795).
(§1) Behavioural activity is measured using eight Digiscan activity monitors (RXYZM (16) TAO, Omnitech Electronics, Columbus, Ohio, USA), connected to an Omnitech Digiscan analyzer and an Apple Macintosh computer equipped with a digital interface board (NB DIO-24, National Instruments, USA). […]
(§2) Behavioural data from each activity monitor, representing the position (horizontal center of gravity and vertical activity) of the animal at each time, are recorded at a sampling frequency of 25 Hz and collected using a custom written LABView™ application. The data from each recording session are stored and analyzed with respect to distance traveled. […]
ED50 value for reduction of amphetamine-induced hyper-locomotion is calculated by curve fitting. […]

MK-801 pre-treated rats = assay: Reduction of MK-801-induced hyper-locomotion; assay type: in vivo; settings: Rattus norvegicus; MK-801 0.7 mg/kg i.p. 90 minutes before test compound; locomotor activity between 45 and 60 minutes after administration; 0-100 μmol/kg s.c.
Excerpt: Reduction of MK-801-Induced Hyper-Locomotion Another animal model of antipsychotic activity is based on administration of the glutamate antagonist MK-801. Glutamate antagonists (i.e. NMDA antagonists), can induce psychoses in man (see Psychopharmacology, 4th Generation of progress Chapter 101, p. 1205 and 1207) and induce behavioural aberrations in animals. Thus, the ability of a drug to affect schizophrenia and psychotic states can be measured using behavioural models based on experimentally-induced hypoglutamatergic states. In this study the NMDA antagonist MK-801 (0.7 mg/kg i.p.) was used to create a hypoglutamatergic state where the rats display abnormal, hyperactive behaviour.
as §1, §2

melting point	SMILES	ED50 [1]	Locomotor activity (drug-naive rats; 3.7 μmol/kg)	Locomotor activity (drug-naive rats; 11 μmol/kg)	Locomotor activity (drug-naive rats; 33 μmol/kg)	other results
190.2 °C	CCC(C)(C)NCCOc1cc(F)cc(S(C)(=O)=O)c1 (as salt: hydrochloric acid salt) [Example 7, N-[2-(3-fluoro-5-methylsulfonyl-phenoxy)ethyl]-2-methyl-butan-2-amine]					
172.3 °C	CCN(CC)CCOc1cc(F)cc(S(C)(=O)=O)c1 (as salt: hydrochloric acid salt) [Example 11, N,N-diethyl-2-(3-fluoro-5-methylsulfonyl-phenoxy)ethanamine]					
200.8 to 201.1 °C	CCNCCOc1cc(F)cc(S(C)(=O)=O)c1 (as salt: hydrochloric acid salt) [Example 3, N-ethyl-2-(3-fluoro-5-methylsulfonyl-phenoxy)ethanamine]					
207.5 °C	CS(=O)(=O)c1cc(F)cc(OCCNC2CCCC2)c1 (as salt: hydrochloric acid salt) [Example 6, N-[2-(3-fluoro-5-methylsulfonyl-phenoxy)ethyl]cyclopentanamine]					
194.6 °C	CS(=O)(=O)c1cc(F)cc(OCCN2CCCCC2)c1 (as salt: hydrochloric acid salt) [Example 10, 1-[2-(3-fluoro-5-methylsulfonyl-phenoxy)ethyl]piperidine]					
128 to 130 °C	CCCN(C)CCOc1cc(F)cc(S(C)(=O)=O)c1 (as salt: hydrochloric acid salt) [Example 4, N-[2-(3-fluoro-5-methylsulfonyl-phenoxy)ethyl]-N-methyl-propan-1-amine]					
202 °C	CS(=O)(=O)c1cc(F)cc(OCCNC2CCC2)c1 (as salt: hydrochloric acid salt) [Example 8, N-[2-(3-fluoro-5-methylsulfonyl-phenoxy)ethyl]cyclobutanamine]					
166.5 °C	CCC(C)NCCOc1cc(F)cc(S(C)(=O)=O)c1 (stereo not drawn) (as salt: hydrochloric acid salt) [Example 5, N-[2-(3-fluoro-5-methylsulfonyl-phenoxy)ethyl]butan-2-amine]					

The next lines start with the molecule.

SMILES	melting point	ED50 [1]	Locomotor activity (drug-naive rats; 3.7 μmol/kg)	Locomotor activity (drug-naive rats; 11 μmol/kg)	Locomotor activity (drug-naive rats; 33 μmol/kg)	other results
CCCCNCCOc1cc(F)cc(S(C)(=O)=O)c1 [Example 2, N-[2-(3-fluoro-5-methylsulfonyl-phenoxy)ethyl]butan-1-amine]		4.2 µmol/kg	13941 counts/60 min	8617 counts/60 min	6325 counts/60 min	
CCCCNCCOc1cc(F)cc(S(C)(=O)=O)c1 (as salt: hydrochloric acid salt) [Example 2, N-[2-(3-fluoro-5-methylsulfonyl-phenoxy)ethyl]butan-1-amine]	204 °C					
CS(=O)(=O)c1cc(F)cc(OCCN2CCCCC2)c1 [Example 10, 1-[2-(3-fluoro-5-methylsulfonyl-phenoxy)ethyl]piperidine]		14.5 µmol/kg	11979 counts/60 min	9344 counts/60 min	8144 counts/60 min	
CCCNCCOc1cc(Cl)cc(S(C)(=O)=O)c1 (as salt: hydrochloric acid salt) [Example 12, N-[2-(3-chloro-5-methylsulfonyl-phenoxy)ethyl]propan-1-amine]	195 to 197 °C					
CCCN(C)CCOc1cc(F)cc(S(C)(=O)=O)c1 [Example 4, N-[2-(3-fluoro-5-methylsulfonyl-phenoxy)ethyl]-N-methyl-propan-1-amine]		28.1 µmol/kg	11435 counts/60 min	10025 counts/60 min	12829 counts/60 min	ED50 [2]: 69 µmol/kg
CS(=O)(=O)c1cc(F)cc(OCCNC2CCC2)c1 [Example 8, N-[2-(3-fluoro-5-methylsulfonyl-phenoxy)ethyl]cyclobutanamine]		36 µmol/kg	10319 counts/60 min	12888 counts/60 min	12872 counts/60 min	ED50 (MK-801 pre-treated rats): 40 µmol/kg
CC(C)NCCOc1cc(F)cc(S(C)(=O)=O)c1 (as salt: hydrochloric acid salt) [Example 9, N-[2-(3-fluoro-5-methylsulfonyl-phenoxy)ethyl]propan-2-amine]	173 °C					
CCCNCCOc1cc(Cl)cc(S(C)(=O)=O)c1 [Example 12, N-[2-(3-chloro-5-methylsulfonyl-phenoxy)ethyl]propan-1-amine]		10.5 µmol/kg	14414 counts/60 min	12740 counts/60 min	7826 counts/60 min	
